# According to the NIST ThermoML archive (doi:10.1016/j.fluid.2007.02.026):
# Numbers after ± are expanded uncertainties.
# Legend:
# [1] = refractive index (Na D-line) (dimensionless); conditions: 101.33 kPa, Liquid, Standard Abbe refractometry
# [2] = Liquid; for mass density: 101.33 kPa
Compound,refractive index ([1]; 298.15 K),mass density ([2]; 298.15 K) [kg/m3],other results
N#Cc1cnccn1 [2-cyanopyrazine],,,refractive index ([1]; 293.15 K): 1.534 ± 0.0007; mass density ([2]; 293.15 K): 1174 ± 1.8 kg/m3; vapor or sublimation pressure ([2]; 476.15 K): 95.1 ± 5 kPa
COc1ccccc1 [anisole],1.5142 ± 0.0007,989.3 ± 1.5,vapor or sublimation pressure ([2]; 424.45 K): 95.1 ± 5 kPa
CCC(C)=O [butanone],1.3769 ± 0.0007,799.8 ± 1.2,vapor or sublimation pressure ([2]; 350.95 K): 95.1 ± 5 kPa
CC(C)OC(C)C [diisopropyl ether],1.3654 ± 0.0007,718.5 ± 1,vapor or sublimation pressure ([2]; 339.65 K): 95.1 ± 5 kPa
CN(C)C=O [dimethylformamide],1.4282 ± 0.0007,943.9 ± 1.4,vapor or sublimation pressure ([2]; 420.85 K): 95.1 ± 5 kPa; vapor or sublimation pressure ([2]; 420.95 K): 95.1 ± 5 kPa

# Further lines, with some results ahead:
refractive index ([1]; 298.15 K),mass density ([2]; 298.15 K) [kg/m3],Compound,other results
1.4097 ± 0.0007,726.4 ± 1,CCCCCCCCCC [decane],vapor or sublimation pressure ([2]; 444.95 K): 95.1 ± 5 kPa
,698.6 ± 1,CCCCCCCC [octane],vapor or sublimation pressure ([2]; 391.15 K): 95.1 ± 5 kPa
